According to PMC4331650 (Biochimica et Biophysica Acta, 2014):
Substitutions are numbered along the chain they refer to.

Tests used:
Format in all cases: cell-based
WT CLC-Ka = target: T1, WT CLC-Ka (Homo sapiens, UniProt P51800); test: NFA modulation of WT CLC-Ka currents, voltage clamp in Xenopus oocytes
T1 sequence (P51800 1-687): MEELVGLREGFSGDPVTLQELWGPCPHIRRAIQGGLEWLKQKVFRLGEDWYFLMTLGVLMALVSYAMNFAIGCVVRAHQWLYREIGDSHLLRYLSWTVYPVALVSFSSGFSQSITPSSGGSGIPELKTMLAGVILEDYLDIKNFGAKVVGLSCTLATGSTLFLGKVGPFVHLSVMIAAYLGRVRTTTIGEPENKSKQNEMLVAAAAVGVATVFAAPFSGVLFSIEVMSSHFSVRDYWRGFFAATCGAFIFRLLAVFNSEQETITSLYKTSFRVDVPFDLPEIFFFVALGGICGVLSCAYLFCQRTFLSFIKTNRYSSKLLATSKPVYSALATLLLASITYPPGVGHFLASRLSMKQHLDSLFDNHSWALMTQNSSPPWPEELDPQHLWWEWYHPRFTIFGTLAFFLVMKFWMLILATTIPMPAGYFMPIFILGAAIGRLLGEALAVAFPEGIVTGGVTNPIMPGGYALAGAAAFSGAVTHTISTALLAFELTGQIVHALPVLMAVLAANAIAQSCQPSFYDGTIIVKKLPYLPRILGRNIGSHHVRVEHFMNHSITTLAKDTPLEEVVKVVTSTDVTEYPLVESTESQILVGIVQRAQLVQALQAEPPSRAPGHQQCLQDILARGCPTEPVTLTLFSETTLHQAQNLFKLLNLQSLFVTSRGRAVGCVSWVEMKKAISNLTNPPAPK
T1 sequence (Q8WZ55 1-320 Y98A partner): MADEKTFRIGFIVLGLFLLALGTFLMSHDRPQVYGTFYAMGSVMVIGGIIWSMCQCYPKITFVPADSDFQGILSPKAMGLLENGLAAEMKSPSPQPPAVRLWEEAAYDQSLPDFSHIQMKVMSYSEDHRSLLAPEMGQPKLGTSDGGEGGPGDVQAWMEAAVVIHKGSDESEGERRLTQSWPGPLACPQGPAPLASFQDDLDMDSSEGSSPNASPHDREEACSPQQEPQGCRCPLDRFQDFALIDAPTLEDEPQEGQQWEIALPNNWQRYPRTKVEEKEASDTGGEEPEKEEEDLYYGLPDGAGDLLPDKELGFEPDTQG

F256A CLC-K1/barttin = target: T2, F256A CLC-K1/barttin (Rattus norvegicus, UniProt Q06393, F256A); test: NFA effect on F256A CLC-K1/barttin, voltage clamp in Xenopus oocytes
T2 sequence (Q06393 1-687 F256A): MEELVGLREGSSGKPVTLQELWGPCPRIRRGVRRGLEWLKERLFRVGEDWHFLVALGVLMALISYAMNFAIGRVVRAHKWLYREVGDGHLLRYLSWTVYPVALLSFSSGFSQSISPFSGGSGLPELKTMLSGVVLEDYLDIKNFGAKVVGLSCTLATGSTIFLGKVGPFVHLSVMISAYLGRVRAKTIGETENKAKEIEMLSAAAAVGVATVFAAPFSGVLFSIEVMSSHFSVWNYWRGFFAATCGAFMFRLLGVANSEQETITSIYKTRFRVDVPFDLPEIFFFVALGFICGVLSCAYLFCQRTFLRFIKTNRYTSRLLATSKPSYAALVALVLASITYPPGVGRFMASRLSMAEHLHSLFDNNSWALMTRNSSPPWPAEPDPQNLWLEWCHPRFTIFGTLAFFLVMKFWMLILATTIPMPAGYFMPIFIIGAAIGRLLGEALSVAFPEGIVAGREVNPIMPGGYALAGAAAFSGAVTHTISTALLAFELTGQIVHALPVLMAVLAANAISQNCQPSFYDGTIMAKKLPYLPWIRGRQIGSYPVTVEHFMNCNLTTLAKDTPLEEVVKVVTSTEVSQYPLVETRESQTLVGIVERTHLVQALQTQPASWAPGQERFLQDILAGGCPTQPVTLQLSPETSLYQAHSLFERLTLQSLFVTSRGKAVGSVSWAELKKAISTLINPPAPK
T2 sequence (Q8WZ55 1-320 Y98A partner): T1 sequence (Q8WZ55 1-320 Y98A partner)

N257A CLC-Ka = target: T3, N257A CLC-Ka (Homo sapiens, UniProt P51800, N257A); settings: 4 μM NFAext in the presence of 100 μM CPAint; −100 mV and 60 mV
T3 sequence (P51800 1-687 N257A): T1 sequence (P51800 1-687) with N257A
T3 sequence (Q8WZ55 1-320 Y98A partner): T1 sequence (Q8WZ55 1-320 Y98A partner)

SMILES: O=C(O)c1cccnc1Nc1cccc(C(F)(F)F)c1 [NFA, niflumic acid]
- current increase (WT CLC-Ka; 200 μM NFA, WT CLC-Ka in Xenopus oocytes): 3 fold
- effect of NFA on currents (WT CLC-Ka; [NFA]ext > 500 μM): inhibited
- maximal stimulation of currents (WT CLC-Ka; at 500 μM NFA, currents at 60 mV normalized to 0 NFA): 4 fold
- effect of NFA on currents (WT CLC-Ka; very low [NFA]ext): not changed
- effect of NFA on currents (F256A CLC-K1/barttin; 10 μM NFA, steady state currents not increased): transient potentiation
- maximal potentiation (I1/I0) (F256A CLC-K1/barttin; transient potentiation extrapolated by single-exponential function): around 1.9 fold
- effect of NFA on single channel conductance (N257A CLC-Ka): does not affect the conductance
